Our source for the EC50 values is US8497271B2, “Modulators of G protein-coupled receptor 88” (Bristol-Myers Squibb Company, priority 2009, dated 2013).

The target in the assay is G protein-coupled receptor 88 (Homo sapiens, UniProt Q9GZN0). The assay can be described thus: EC50 of select compounds as GPR88 modulators (Table 2; GTPγS assay and cAMP HTRF assay are both described, and the one used is not stated). Format: cell-based. Conditions: read-out: Range (EC50). On the procedure: 96 well GTPγS assay plates were purchased from Perkin Elmer. Wheat Germ Agglutinin PVT SPA beads and ^35S-GTPγS were purchased from Amersham GDP, GTPγS and all buffer reagents were from Sigma. 384 well white NBS plates were purchased from corning. Pertussis toxin was purchased from Calbiochem. All cell culture reagents were purchased from Invitrogen. Forskolin was purchased from Sigma. The cAMP HTRF kit was purchased fron Cisbio International.
The GTPγS assay buffer consisted of 10 mM MgCl2, 180 mM NaCl, 200 uM GDP, 0.167 mg/ml DTT, 1 mM EGTA and 20 mM HEPES pH7.4. This buffer was used for dilution of membranes, beads, and ^35S GTPγS components. To each well of the 96 well assay plate 48 ul assay buffer, 2 ul of 100× compound, 50 ul membrane solution (0.2 ug/ul), 50 ul ^35S GTPγS solution (0.8 nM) and 50 ul of SPA beads (10 mg/ml). Non-specific binding was determined by the addition of cold GTPγS to control wells. The plates were sealed with clear sealing tape and incubated at room temperature for 1 hour. GTPγS activity was detected using a Wallac Micro-Beta Trilux liquid scintillation counter. Non-specific binding was determined using 10 uM cold GTPγS.
The cAMP HTRF assay is modified from the Cisbio International kit procedure 62AM4PEJ. Assay plates were prepared by stamping 0.1 ul of 100× compound stock solutions diluted in DMSO or DMSO alone into 384 well NBS plates. The cAMP HTRF assay was performed using cells in suspension. The cAMP HTRF assay buffer consisted of Hank's Balanced Salt Solution (HBSS), 2 mM CaCl2, 5 mM MgCl2, 20 mM HEPES and 1 mM 3-isobutyl-1-methylxanthine (IBMX) (added fresh at the time of assay). For pertussis toxin treatment pertussis toxin (100 ng/ml) was added to culture medium for 16 hours prior to assay. Confluent cells were disrupted with cell dissociation buffer count cells then centrifuged at 1000×g for minutes. The cell pellet was resuspended in assay buffer alone for basal cAMP measurements or with 0.75 uM forskolin (added immediately prior to addition to wells) for addition to all other wells. Using a Multidrop 384 (Lab systems) 10 ul of cell suspension was added to each well containing compound or DMSO. The plates were incubated at room temperature for 30 minutes covered. During this time the cAMP standard curve was prepared as per manufacturer's instruction. At the end of the incubation 10 ul of anti-cAMP cryptate and 10 ul cAMP-XL, diluted in manufacturer's lysis buffer, were added to each well. The plated were incubated at room temperature for 60 minutes covered then read on an Envision plate reader (Perkin Elmer) and the 665 nm/620 nm fluorescence ratio determined Fluorescence ratio values were converted to molar cAMP concentrations from the standard curve using the GraphPad Prism program.

The structures appear in SMILES notation. Like-named read-outs stand apart in the source and are kept apart here.

Sequence of G protein-coupled receptor 88 (Q9GZN0 whole entry, species assumed): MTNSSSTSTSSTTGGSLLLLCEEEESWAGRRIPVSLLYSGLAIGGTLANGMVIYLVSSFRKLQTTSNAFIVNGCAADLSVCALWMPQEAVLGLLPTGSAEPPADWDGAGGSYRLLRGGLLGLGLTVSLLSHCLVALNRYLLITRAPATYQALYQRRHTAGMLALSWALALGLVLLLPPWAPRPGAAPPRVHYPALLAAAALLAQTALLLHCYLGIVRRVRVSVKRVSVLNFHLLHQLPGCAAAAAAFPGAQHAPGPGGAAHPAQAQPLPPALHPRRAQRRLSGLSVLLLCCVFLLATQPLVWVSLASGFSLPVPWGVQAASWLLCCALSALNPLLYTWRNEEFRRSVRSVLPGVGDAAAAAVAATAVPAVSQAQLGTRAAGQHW

As for `CCCC(C)COc1ccc([C@H](CO)NC(=O)[C@H]2C[C@@H]2c2cccs2)cc1` (stereo partly drawn) [Example 15, (1S,2S)-2-Thiophen-2-yl-cyclopropanecarboxylic acid {(R)-2-hydroxy-1-[4-(2-methyl-pentyloxy)-phenyl]-ethyl}-amide], the EC50 (numeric value printed) turned out to be 74 nM.
Same read-out and setting: under `CC[C@H](C)COc1ccc([C@H](CO)NC(=O)[C@H]2C[C@@H]2c2cccs2)cc1` [Example 6, (1S,2S)-2-Thiophen-2-yl-cyclopropanecarboxylic acid {(R)-2-hydroxy-1-[4-((S)-2-methyl-butoxy)-phenyl]-ethyl}-amide] stands 124 nM.
Take `CCC(CC)COc1ccc([C@H](CO)NC(=O)[C@H]2C[C@@H]2c2ccccc2)c(OC)c1` [Example 3, (1S,2S)-2-Phenyl-cyclopropanecarboxylic acid {(R)-1-[4-(2-ethyl-butoxy)-2-methoxy-phenyl]-2-hydroxy-ethyl}-amide]: the EC50 (class symbol X) lay within 62 to 130 nM.
Still for that read-out and setting: under `COc1cc(-c2ccc(C)cc2)ccc1[C@H](CO)NC(=O)[C@H]1C[C@@H]1c1cccs1` [Example 12, (1S,2S)-2-Thiophen-2-yl-cyclopropanecarboxylic acid [(R)-2-hydroxy-1-(3-methoxy-4′-methyl-biphenyl-4-yl)-ethyl]-amide] stands 62 to 130 nM.
Consider `Cc1ccc(-c2ccc([C@H](CO)NC(=O)C3CC3c3cccs3)cc2)cc1` (stereo in doubt) [Example 5, (1S,2S)-2-Thiophen-2-yl-cyclopropanecarboxylic acid [(R)-2-hydroxy-1-(4′-methyl-biphenyl-4-yl)-ethyl]-amide], for which the concentration giving a half-maximal response (EC50) (numeric value printed) came to 81 nM.
